Among the data in ChEMBL document CHEMBL3638701, “Inhibitors of protein kinases” (2015) are IC50 values, retold here.

SMILES strings stand for the structures. Where only a bound is given, the exact number is not on record here.

For experiment [1], the target named is Cyclin-dependent kinase 1 (Homo sapiens, UniProt P06493). Put plainly: (§1) In Vitro Kinase Inhibition Assay: In vitro kinase assay analysis may be performed using standard techniques described in the art. These techniques are also used by commercial services providers in order to offer in vitro kinase activity assay services, e.g. the assays offered by Millipore Inc. (worldwide website www(dot)millipore.com), ProQinase GmbH (worldwide website www(dot)proqinase.de) and others. All kinase assays were performed in 96-well FlashPlates from Perkin Elmer/NEN (Boston, Mass., USA) in a 50ul reaction volume. The reaction mixture was pipetted in four steps in the following order: 20ul of assay buffer (standard buffer),5ul of ATP solution (in H2O, 5 ul of test compound (in 10% DMSO), 10ul of substrate/10ul of enzyme solution (premixed)The assay for all enzymes contained 60 mM HEPES-NaOH (pH 7.5), 3 mM MgCl2, 3 mM MnCl2, 3uM Na-Orthovanadate, 1.2 mM DTT, 50 ug/ml PEG2000, 1 uM [33P]-ATP (approx. 5x1005 cpm per well).

Experiment [2] has as its target Cyclin-dependent kinase 5 (Homo sapiens, UniProt Q00535). The experiment is described as §1.
In experiment [3] the target is Cyclin-dependent kinase 9 (Homo sapiens, UniProt P50750). The experiment is described as §1.
The target in experiment [4] is Cyclin-dependent kinase 7 (Homo sapiens, UniProt P50613). The experiment is described as §1.
Experiment [5] has as its target Glycogen synthase kinase-3 alpha (Homo sapiens, UniProt P49840). The description is as §1.
The target of experiment [6] is Cyclin-dependent kinase 6 (Homo sapiens, UniProt Q00534). Described as §1.
In experiment [7] the target is Cyclin-dependent kinase 2 (Homo sapiens, UniProt P24941). The description is as §1.
In experiment [8] the target is Interleukin-1 receptor-associated kinase 1 (Homo sapiens, UniProt P51617). The experiment is described as §1.
In experiment [9] the target is Glycogen synthase kinase-3 beta (Homo sapiens, UniProt P49841). The experiment is described as §1.
The target of experiment [10] is Cyclin-dependent kinase 3 (Homo sapiens, UniProt Q00526). The description is as §1.
Sequence of Cyclin-dependent kinase 3 (Q00526 whole entry): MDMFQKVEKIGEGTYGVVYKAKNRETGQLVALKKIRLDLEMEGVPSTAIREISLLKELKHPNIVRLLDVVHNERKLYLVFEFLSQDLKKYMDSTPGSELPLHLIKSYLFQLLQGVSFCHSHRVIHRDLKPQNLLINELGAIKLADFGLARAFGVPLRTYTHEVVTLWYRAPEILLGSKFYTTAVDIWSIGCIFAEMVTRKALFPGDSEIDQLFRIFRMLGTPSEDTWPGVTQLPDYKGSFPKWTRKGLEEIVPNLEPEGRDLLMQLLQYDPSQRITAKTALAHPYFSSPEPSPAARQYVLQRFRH

Sequence of Glycogen synthase kinase-3 beta (P49841 whole entry): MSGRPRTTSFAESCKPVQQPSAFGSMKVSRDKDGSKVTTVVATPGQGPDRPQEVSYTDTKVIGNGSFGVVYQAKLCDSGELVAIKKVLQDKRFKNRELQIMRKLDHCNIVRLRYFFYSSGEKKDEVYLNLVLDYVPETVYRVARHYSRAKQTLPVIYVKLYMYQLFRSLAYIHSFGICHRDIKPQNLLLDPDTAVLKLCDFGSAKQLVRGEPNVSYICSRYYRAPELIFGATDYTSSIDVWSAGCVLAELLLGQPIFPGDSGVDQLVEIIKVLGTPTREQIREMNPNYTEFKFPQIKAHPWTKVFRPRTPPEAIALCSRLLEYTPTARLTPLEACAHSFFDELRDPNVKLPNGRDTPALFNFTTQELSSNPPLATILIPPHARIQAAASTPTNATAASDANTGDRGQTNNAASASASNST
Sequence of Interleukin-1 receptor-associated kinase 1 (P51617 whole entry): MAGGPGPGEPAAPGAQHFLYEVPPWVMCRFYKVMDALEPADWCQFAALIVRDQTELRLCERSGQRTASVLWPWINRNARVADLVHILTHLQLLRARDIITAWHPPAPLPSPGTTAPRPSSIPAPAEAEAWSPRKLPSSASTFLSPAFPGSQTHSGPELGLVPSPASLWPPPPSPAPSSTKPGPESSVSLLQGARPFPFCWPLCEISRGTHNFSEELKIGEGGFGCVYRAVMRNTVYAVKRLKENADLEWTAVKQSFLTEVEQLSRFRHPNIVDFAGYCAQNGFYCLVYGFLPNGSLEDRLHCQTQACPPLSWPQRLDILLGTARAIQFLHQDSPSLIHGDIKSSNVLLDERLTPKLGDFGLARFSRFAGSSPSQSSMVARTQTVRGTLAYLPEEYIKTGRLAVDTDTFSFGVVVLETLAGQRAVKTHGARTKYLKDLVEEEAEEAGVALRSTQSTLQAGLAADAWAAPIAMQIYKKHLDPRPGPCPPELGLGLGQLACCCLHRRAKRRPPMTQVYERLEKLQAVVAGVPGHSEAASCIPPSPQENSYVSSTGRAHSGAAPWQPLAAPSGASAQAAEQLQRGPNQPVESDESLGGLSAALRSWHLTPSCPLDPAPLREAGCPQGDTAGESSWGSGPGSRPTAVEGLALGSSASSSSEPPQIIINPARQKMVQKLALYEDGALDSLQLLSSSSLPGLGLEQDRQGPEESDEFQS
Sequence of Cyclin-dependent kinase 5 (Q00535 whole entry): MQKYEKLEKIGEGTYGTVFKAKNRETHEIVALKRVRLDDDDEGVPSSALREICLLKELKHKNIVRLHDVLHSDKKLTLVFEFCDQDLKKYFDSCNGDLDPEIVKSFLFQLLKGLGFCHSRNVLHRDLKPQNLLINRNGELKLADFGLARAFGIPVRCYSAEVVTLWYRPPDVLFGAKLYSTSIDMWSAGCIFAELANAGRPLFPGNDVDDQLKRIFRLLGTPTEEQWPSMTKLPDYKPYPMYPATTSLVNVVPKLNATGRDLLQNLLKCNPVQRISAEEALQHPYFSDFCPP
Sequence of Cyclin-dependent kinase 1 (P06493 whole entry): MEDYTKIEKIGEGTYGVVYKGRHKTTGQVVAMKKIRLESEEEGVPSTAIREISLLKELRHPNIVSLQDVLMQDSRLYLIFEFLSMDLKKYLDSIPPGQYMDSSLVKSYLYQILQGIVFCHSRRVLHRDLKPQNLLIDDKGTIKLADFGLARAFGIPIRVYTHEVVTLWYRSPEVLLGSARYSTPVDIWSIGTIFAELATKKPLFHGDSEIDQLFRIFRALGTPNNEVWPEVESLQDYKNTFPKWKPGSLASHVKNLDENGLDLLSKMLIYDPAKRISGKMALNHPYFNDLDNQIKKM
Sequence of Cyclin-dependent kinase 6 (Q00534 whole entry): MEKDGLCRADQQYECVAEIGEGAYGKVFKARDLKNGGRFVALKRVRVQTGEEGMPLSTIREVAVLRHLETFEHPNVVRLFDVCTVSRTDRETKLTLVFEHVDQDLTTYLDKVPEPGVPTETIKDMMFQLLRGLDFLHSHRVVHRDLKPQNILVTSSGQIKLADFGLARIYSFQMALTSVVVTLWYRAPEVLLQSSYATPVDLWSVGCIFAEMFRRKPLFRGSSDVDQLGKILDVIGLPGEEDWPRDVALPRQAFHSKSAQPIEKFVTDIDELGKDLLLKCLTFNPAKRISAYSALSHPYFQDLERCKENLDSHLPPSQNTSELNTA
Sequence of Cyclin-dependent kinase 7 (P50613 whole entry): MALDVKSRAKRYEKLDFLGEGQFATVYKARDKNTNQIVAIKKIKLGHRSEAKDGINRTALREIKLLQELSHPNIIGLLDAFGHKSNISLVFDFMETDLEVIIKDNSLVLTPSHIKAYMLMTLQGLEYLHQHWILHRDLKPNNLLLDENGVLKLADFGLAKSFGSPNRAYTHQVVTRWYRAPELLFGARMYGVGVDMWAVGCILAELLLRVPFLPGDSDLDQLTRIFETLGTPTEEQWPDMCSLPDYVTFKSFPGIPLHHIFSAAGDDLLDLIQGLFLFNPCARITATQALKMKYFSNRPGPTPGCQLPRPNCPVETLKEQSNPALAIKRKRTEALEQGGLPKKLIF
Sequence of Cyclin-dependent kinase 9 (P50750 whole entry): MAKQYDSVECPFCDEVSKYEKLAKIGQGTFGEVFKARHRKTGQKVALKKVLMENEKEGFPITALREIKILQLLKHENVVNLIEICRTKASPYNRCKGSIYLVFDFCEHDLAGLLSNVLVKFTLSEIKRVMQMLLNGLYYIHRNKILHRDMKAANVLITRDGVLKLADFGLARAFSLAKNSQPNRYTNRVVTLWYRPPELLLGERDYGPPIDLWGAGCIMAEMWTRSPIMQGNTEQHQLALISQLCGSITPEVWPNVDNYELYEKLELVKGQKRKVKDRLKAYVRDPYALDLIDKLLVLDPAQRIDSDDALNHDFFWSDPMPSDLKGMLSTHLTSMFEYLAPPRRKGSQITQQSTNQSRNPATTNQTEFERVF
Sequence of Glycogen synthase kinase-3 alpha (P49840 whole entry): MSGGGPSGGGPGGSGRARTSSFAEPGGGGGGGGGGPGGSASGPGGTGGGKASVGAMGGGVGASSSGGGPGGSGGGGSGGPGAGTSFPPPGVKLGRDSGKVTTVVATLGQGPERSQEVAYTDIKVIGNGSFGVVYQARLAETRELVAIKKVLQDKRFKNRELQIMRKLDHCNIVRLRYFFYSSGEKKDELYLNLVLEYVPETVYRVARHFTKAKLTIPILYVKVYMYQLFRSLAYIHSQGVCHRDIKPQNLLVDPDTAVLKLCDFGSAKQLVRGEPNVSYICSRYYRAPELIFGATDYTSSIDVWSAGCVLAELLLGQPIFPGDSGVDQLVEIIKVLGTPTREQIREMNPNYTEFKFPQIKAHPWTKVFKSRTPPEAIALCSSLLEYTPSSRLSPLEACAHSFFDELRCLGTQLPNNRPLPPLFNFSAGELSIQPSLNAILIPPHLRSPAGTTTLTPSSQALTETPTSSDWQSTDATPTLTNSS

In general, IC50 refers to the concentration at which inhibition is half-maximal. In the case of `COc1cc(F)ccc1-c1ccnc(NC(=O)[C@@H]2CC[C@H](NC(C)=O)C2)c1`, the 50% inhibitory concentration (IC50) in [1] is 1880 nM; in experiment [2] it was 1340 nM; in [3], 10 nM; in experiment [4], greater than 5000 nM; in [5] it was 99 nM; in experiment [6], greater than 5000 nM. Besides, the IC50 in [7] was 913 nM; in experiment [8], greater than 5000 nM; in [9] it was 857 nM; in experiment [10], 1450 nM.
